# Results as given in patent US20170184612A1, “USE OF LEUKOCYTES AND NOVEL BIOMARKERS IN THE DIAGNOSIS, CONFIRMATION, AND TREATMENT OF A NEUROLOGICAL DISORDER” (The Trustees of Columbia University in the City of New York, priority 2014, published 2017).
# How the values were obtained:
# [1] = tested on: peripheral blood mononuclear cells (PBMC), T cells; experiment: ELISpot assay, gamma-interferon release (SFC) after stimulation with a-synuclein epitope pools; assay type: cell-based, human; conditions: for Pool +: IFNg, Pool Stimulated, number of donors with a positive response, Donors tested 1; for IFNg Peptide + (donors positive to the peptide): of donors tested (peptide); for IFNg Peptide +: number of donors positive to the single peptide
# Method in brief: (§1)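 Ficoll-isolated PBMC, PD vs age-matched controls, blinded; peptide pools (122 candidates + pS129 epitopes), 22 h, 37 C. Positive pools deconvoluted.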
# [2] = tested on: peripheral blood mononuclear cells (PBMC), T cells; experiment: ELISpot assay, IL-5 release (SFC) after stimulation with a-synuclein epitope pools; assay type: cell-based, human; conditions: for IL-g Peptide + (donors positive to the peptide): of donors tested (peptide); for IL-g Peptide +: number of donors positive to the single peptide
# Method in brief: as §1
# [3] = Patients Summary, PD patients, single peptide
# [4] = second 'Pool Stimulated' section (from r296), 12 donors tested
# [5] = peptide + / donors tested (peptide), second 'Pool Stimulated' section (from r296), 12 donors tested
# [6] = single peptide, second 'Pool Stimulated' section (from r296), 12 donors tested
Substance,Pool + [1],"IFNg Peptide + (donors positive to the peptide) ([1]; Patients Summary, PD patients)","IFNg Response Frequency [1, 3] [%]","IFNg Total SFC [1, 3] [SFC]","IFNg Peptide + [1, 4]","IFNg Response Frequency [1, 5] [%]","IFNg Total SFC [1, 6] [SFC]","IL-g Peptide + (donors positive to the peptide) ([2]; Patients Summary, PD patients)","IL-g Response Frequency [2, 3] [%]","IL-g Total SFC [2, 3] [SFC]","IL-g Peptide + [2, 4]","IL-g Response Frequency [2, 5] [%]","IL-g Total SFC [2, 6] [SFC]","IL-g Avg SFC [2, 6] [SFC]","IFNg Avg SFC [1, 3] [SFC]","IFNg Avg SFC [1, 6] [SFC]","IL-g Avg SFC [2, 3] [SFC]"
3521.0044 (GVTAVAQKTV; listed as Homo sapiens),0,0,0,0,0,0,0,0,0,0,0,0,0,,,,
3521.0055 (QEGILEDMPV; listed as Homo sapiens),0,0,0,0,0,0,,0,0,0,1,50,58,58,,,
3521.0076 (PGKTKEGVLYVGSKT; listed as Homo sapiens),1,2,25,80,1,50,300,1,13,89,1,50,120,120,40,300,89
3521.0065 (FVKKDQLGK; listed as Homo sapiens),0,0,0,0,0,0,0,0,0,0,0,0,0,,,,
3521.0069 (GVAEAAGKTK; listed as Homo sapiens),0,1,13,53,0,0,0,0,0,0,0,0,0,,53,,
3521.0079 (KGVVHGVATVAEKTK; listed as Homo sapiens),1,0,0,0,0,0,0,0,0,0,1,50,284,284,,,
3521.0036 (AGSIAAATGF; listed as Homo sapiens),0,0,0,0,0,0,0,0,0,0,0,0,0,,,,
3521.0086 (ATVAEKTKEQVTNVG; listed as Homo sapiens),1,0,0,0,0,0,0,0,0,0,0,0,0,,,,
3521.0034 (GVLYVGSKTK; listed as Homo sapiens),1,5,83,2260,,,,2,33,284,,,,,452,,142
3521.0032 (GAVVTGVTAV; listed as Homo sapiens),1,0,0,0,0,0,0,0,0,0,0,0,0,,,,
3521.0067 (KTKEGVVHG; listed as Homo sapiens),0,0,0,0,,,,0,0,0,,,,,,,
3521.0008 (IAAATGFVK; listed as Homo sapiens),0,0,0,0,0,0,0,1,25,177,0,0,0,,,,177
